Tests used:
[1] = test system: MTAP-positive cells and cells lines; assay: Applicants' tissue culture experiments on protection of MTAP-positive cells (summary statements); type: cell-based, human; mouse
[2] = test system: MTAP(−) A549 cells; assay: Clonogenic assay of A549 cells; type: cell-based, human; conditions: for potentiation of killing of A549 cells by DAP: Example 9
Description: (§1) Cell viability of adherent cell types was measured by clonogenic assay as follows: after releasing cells with trypsin and removing a portion of the cell suspension for Coulter counting, the remainder of the cell suspension was plated in serial dilutions in growth medium, without drugs. After a period sufficient for clones to reach a size visible by eye (usually 2 to 3 weeks), clones were stained with crystal violet in a saline/methanol solution. Dishes that had fewer than 100 clones were deemed suitable for counting. From these counts and from the dilution factors, the approximate number of viable cells, in the parent treatment dishes, was calculated. […] In clonogenic assays, clone size was often variable, especially after treatment with toxic drugs. Moreover, many of the very small clones may have arisen from cells detached during the weeks of incubation. […] Cloning efficiency for healthy, growing A549 cells was about 50%; for HF cells, efficiency was quite variable, ranging from 25 to 75% (perhaps because the HF cell stock varied, from experiment to experiment, in passage number).
A549 cells were incubated for 4 days with additions shown below, and viable cells measured by clonogenic assay. (Results shown are approximate; see Methods) Cell count in dish at start: 40,000
• MTAP(−) A549 lung tumor cell cultures were treated with F-Ade, with or without MTA, 5′-dAdo, or adenine (Ade), for three days. Coulter counts of cells, and viable cells as determined by clonogenic assay, are shown below: • Initial cell number: 10,340*
• A549 cell cultures were treated with DAP, with or without 5′-dAdo or adenine, for three days. After trypsinization, one-fourth of the cell suspension was counted, and raw data is shown below, with duplicate counts for each sample. The cell suspension was also serially diluted for clonogenic assay. • Counts at start of experiment: Dish one: 36,480; 39,160; Dish two: 52,680; 51,360. • Initial viable cells by clonogenic assay: 180,000.
• Cell cultures were treated with MTX or alanosine for one day. DAP was then added and 3 days later, cells were trypsinized and serially diluted for clonogenic assay. Results are shown below: • Initial viable cells: 146,000
• A549 cells were plated, and after they had adhered to the substrate, medium was changed to methionine-free medium with 10% dialyzed serum. L-ethionine (Eth) and MTA were added, and after 4 days, cell cultures were trypsinized and serially diluted for clonogenic assay. • Initial number of viable cells: 160,000*
• A549 cultures were treated with 6-thioguanine (TG) or 2,6,diaminopurine (DAP), or both, for 3 days. • Initial viable cells: 275,000 • After 3 days: […]

[3] = test system: MTAP(+) HF cells; assay: Coulter counts of HF cell cultures; type: cell-based, human; conditions: for Coulter counts: x56 = cells/dish
Description: For adherent cell types (e.g., HF, A549, MCF7) cells were plated in 60 mm -diameter plastic tissue culture dishes and incubated at 37° C. in a humidified 5% CO2 atmosphere, in Dulbecco's Modified Eagle's Medium (DME) with 10% fetal bovine serum (FBS). At the start of an experiment, medium was replaced with DME and 10% dialyzed FBS.
(§2) For adherent cell types, cell numbers were determined periodically by releasing cells with trypsin (dead cells that were no longer adherent were removed by two prior rinses of the culture dish) and placing a portion of the resulting cell suspension in a Coulter counter. For cell types that grow in suspension, portions of the culture were counted directly, without trypsin treatment. Coulter counts of cells from each dish were done twice, and almost all experiments were done in duplicate. In the presentation of results, raw data for Coulter counts is given in some cases, while in others, counts have been rounded off to two to three significant figures. (Background Coulter counts—i.e., counts of diluent alone—were insignificant.)
Cell cultures were treated with MeP, with or without 5′-dAdo or MTA, for 4 days. The cell cultures were then changed to fresh medium, with the addition of 30 μM Ade to inhibit further action of the analog. Two days later cultures were trypsinized and a portion of the suspension was counted.
• A. F-Ade was added to cultures of HF cells, with varying amounts of 5′-dAdo. After 3 days, cell numbers were counted. • Initial cell count: 1,100 • After three days:
• Cultures of human fibroblasts were treated with DAP, 5′-dAdo, MTA, adenine, or MTX. Thymidine (15 μM) was added to all cultures. • Initial count was: 1807 • Counts, as raw data, after 3 days of incubation, are shown below: […]
• Human fibroblasts in culture were treated with 6-thioguanine (TG), 2,6-diaminopurine (DAP), or 5′-dAdo for 3 days. After trypsinization, cell numbers were counted. • Initial cell number: 296,000

[4] = test system: MTAP-negative cell lines; assay: Applicants' tissue culture experiments on MTAP-negative cell lines (summary statements); type: cell-based, human; mouse; conditions: co-administered inhibitor of de novo purine synthesis
[5] = test system: MTAP(+) HF cells; assay: Clonogenic assay of HF cells; type: cell-based, human
Description: as §1
• B. F-Ade was added to cultures of MTAP(+) HF cells, with or without 5′-dAdo, for 3 days. Cultures were then trypsinized and serially diluted for clonogenic assay. • Initial number of viable cells per dish: 45,000 • Viable cells after 3 days shown below:
• HF cells were plated, and after they had adhered to the substrate, medium was changed to methionine-free medium, with 10% dialyzed serum. • Initial Coulter count: 73,000*; viable cells: 88,000 • After 3 days in methionine-free medium, with or without L-ethionine (Eth) or MTA: […]

[6] = test system: MTAP(−) HL-60 cells; assay: Coulter counts of HL-60 suspension cultures; type: cell-based; conditions: six days, 5′-dAdo or Ade 60 μM added 3 hours before, where present, initial cell number/ml 8,160
Description: (§3) For cell types that grow in suspension (e.g., ML-1, HL-60, K-562) medium was RPMI-1640 with 10% FBS (undialyzed).
as §2
(§4) For cells that grow in suspension, the effect of treatments was assessed solely by changes in Coulter count.
• HL-60 cells were grown in RPMI 1640 with 10% FBS. 5′-dAdo, adenine, or neither were added, and after 3 hours, 5-fluorouracil (FU) was added to selected dishes. Six days later, cell numbers were assessed in a Coulter counter. • Initial cell number/ml: 8,160

[7] = test system: MTAP(+) ML-1 cells; assay: Coulter counts of ML-1 suspension cultures; type: cell-based; conditions: for Increase in cell number/ml, No 5′-dAdo: 2 days, FU 3 μM, TG 20 μM, DAP 50 μM where present, initial Coulter count/ml 308,000; for inhibition of growth of MTAP(+) ML-1 cells: Example 14
Description: as §3, §2, §4
• ML-1 cells were incubated in RPMI 1640 with 10% FBS with 5′-dAdo (60 μM) for 6 hours. 5-fluorouracil (FU), 6-thioguanine (TG), or 2,6-diaminopurine (DAP) were then added, and after 2 additional days, 0.5 ml was taken for Coulter counts. Initial Coulter count/ml: 308,000

[8] = test system: MTAP(+) HT29 colon carcinoma cells; assay: Coulter counts of HT29 cultures; type: cell-based, human; conditions: 4 days, 5′-dAdo 60 μM added one day before, where present, initial count 46,000, x4 = cells/dish
Description: as §2
• 5′-dAdo was added to cultures of MTAP(+) HT29 colon carcinoma cells for one day. 5-fluorouracil (FU) was then added and 4 days later cultures were trypsinized, thoroughly dispersed into mostly single cells by vigorous pipetting, and counted. • Initial Coulter count at time of addition of FU: 46,000

[9] = test system: MTAP(+) hematopoietic cell progenitors; assay: Assay of colony-forming cells from mouse bone marrow; type: cell-based
Description: Method: The procedure for assay of colony-forming cells from mouse bone marrow was similar to methods described in the literature (see e.g., B. A. Teicher et al, Cancer Research, 47:513-518, 1987). In brief, cells were flushed from the femurs of Swiss mice, counted, and seeded into six-well tissue culture plates with supplemented McCoy's 5A medium, 15% FBS, 10 to 20% L929-cell conditioned medium as a source of colony-stimulating activity (L929 is MTAP-negative), 0.3% agar, and penicillin/streptomycin (op. cit. B. A. Teicher et al). Cells were seeded at two different densities: 50,000 and 250,000 cells per well. Control wells contained either no drugs, or adenine at 15 or 30 μM, or 5′-deoxyadenosine (5′-dAdo) at 15, 30, or 45 μM. Treatment wells contained 6-methylpurine (MeP) at 5 or 15 μM, 5′-deoxyadenosine (5′-dAdo) at 15 or 30 μM, and adenine at 15 or 30 μM, in various combinations. After eight days of incubation at 37° C. in a humidified 5% CO2 atmosphere, wells were fixed by the addition of 1 ml of 5% glutaraldehyde. Photographs were taken of a randomly selected portion of each well, as viewed (at fixed magnification) through a Nikon inverted microscope equipped with a camera.

[10] = test system: human and mouse tumor cells; assay: Killing of tumor cells by adenine analogs (Applicants' findings, no method given); type: cell-based
[11] = MTX 1 μM or alanosine 3 μM for one day, then DAP 40 μM, 3 days (where present), initial viable cells 146,000

## Nc1nc2nn[nH]c2c(=O)[nH]1 [8-azaguanine]
[1]
  protection of MTAP-positive cells, but not MTAP-negative cells, from the toxicity of the nucleobase analog: selectively protected

## Nc1ncnc2nc[nH]c12 [Ade, adenine]
[2]; 10 μM MeP
  blocking of MeP toxicity in A549 cells: blocked
[2]; 100 μM DAP, Example 7
  blocking of DAP toxicity in A549 cells: did
[2]; 1 to 2 μM F-Ade
  blocking of F-Ade toxicity in A549 cells: blocked
[3]; Example 8
  blocking of DAP toxicity in HF cells: blocked

## N[C@@H](CN(O)N=O)C(=O)O [Alanosine, alanosine]
[2]
  potentiation of killing of A549 cells by DAP: strongly potentiated
[2]; [11]
  Viable Cells: 118,000
[4]
  potentiation of selective killing of MTAP-negative cells by adenine and methionine antagonists: potentiated

## CCSCC[C@H](N)C(=O)O [Eth, ethionine]
[5]; 40 μM L-ethionine, methionine-free medium
  toxicity to HF cells: very toxic
[5]; 3 days in methionine-free medium, Eth 40 μM, MTA 15 μM where present, initial viable cells 88,000
  Viable Cells: 1,600
[2]; 4 days, methionine-free medium, Eth 40 μM, MTA 30 μM where present, initial viable cells 160,000
  Viable Cells: 24,000
[2]; 4 days, methionine-free medium, Eth 80 μM, MTA 30 μM where present, initial viable cells 160,000
  Viable Cells: 5,000

## O=c1[nH]cc(F)c(=O)[nH]1 [FU, 5-fluorouracil]
[6]; FU 10 μM
  Coulter counts/ml: 125,200 counts/ml
[6]; FU 30 μM
  Coulter counts/ml: 62,400 counts/ml
[7]
  Increase in cell number/ml, No 5′-dAdo: 436,000 /ml
  inhibition of growth of MTAP(+) ML-1 cells: inhibited growth
[8]; FU 3 μM
  Coulter counts: 65,300
[8]; FU 10 μM
  Coulter counts: 36,600
[8]; FU 30 μM
  Coulter counts: 25,500
[1]
  protection of MTAP-positive cells, but not MTAP-negative cells, from the toxicity of the nucleobase analog: selectively protected

## CN(Cc1cnc2nc(N)nc(N)c2n1)c1ccc(C(=O)N[C@@H](CCC(=O)O)C(=O)O)cc1 [MTX, methotrexate]
[2]
  potentiation of killing of A549 cells by DAP: strongly potentiated
[2]; [11]
  Viable Cells: 89,000
[4]
  potentiation of selective killing of MTAP-negative cells by adenine and methionine antagonists: potentiated
[3]; 3 days, MTX 10 μM, DAP 100 μM, 5′-dAdo, MTA or Ade 15 μM where present, thymidine 15 μM in all cultures, initial count 1807
  Coulter counts: 3,455

## Cc1ncnc2nc[nH]c12 [MeP, 6-methylpurine]
[2]; 10 μM MeP
  toxicity to A549 cells, clonogenic assay: highly toxic
[2]; 4 days, MeP 10 μM, MTA, 5′-dAdo or Ade 20 μM where present, cell count at start 40,000, approximate
  Viable Cells: 0
[3]; MeP 5 μM, 5′-dAdo 20 μM or MTA 10 μM where present, 4 days, then fresh medium with 30 μM Ade, 2 days, initial count 1,157
  Coulter counts: 2,885
[3]; MeP 5-10 μM, Example 3
  toxicity to HF cells: strongly toxic
[9]; MeP at doses of 5 and 15 μM
  toxicity to colony-forming murine hematopoietic progenitors: highly toxic
[9]; wells seeded at 250,000 cells/well, eight days, MeP 5 or 15 μM, adenine or 5′-dAdo 15 or 30 μM where present, control approximately 40-50 colonies
  colonies observed (each field of view): no colonies
[10]
  killing of human and mouse tumor cells: very rapid and potent killing

## Nc1nc2nc[nH]c2c(=S)[nH]1 [TG, 6-thioguanine]
[7]
  Increase in cell number/ml, No 5′-dAdo: 114,000 /ml
  inhibition of growth of MTAP(+) ML-1 cells: inhibited growth
[2]; 3 days, TG 40 μM, DAP 50 μM where present, initial viable cells 275,000
  Viable Cells: 200,000
[1]
  protection of MTAP-positive cells, but not MTAP-negative cells, from the toxicity of the nucleobase analog: selectively protected
[3]; 3 days, TG 40 μM, DAP 50 μM, 5′-dAdo 60 μM where present, initial cell number 296,000
  Increase in cells/dish: 72,000 cells/dish
[3]; Example 15
  inhibition of HF cell growth: inhibited

## O=CN(O)CC(=O)O [hadacidin]
[4]
  potentiation of selective killing of MTAP-negative cells by adenine and methionine antagonists: potentiated

From patent publication US8796241B2, “Therapy of tumors and infectious agents deficient in methylthioadenosine phosphorylase” (priority 2007, dated 2014)
